Assay results published in paper PMC10459042, “Synthesis of 1,2,3-Triazole-Containing Methoxylated Cinnamides and Their Antileishmanial Activity against the Leishmania braziliensis Species” (Pharmaceuticals, 2023).
≈ marks a conversion by molar mass, not a printed value. Blank lines part the entries; values can stand above or below the compound they belong to.

Key:
[1] = tested on: Leishmania braziliensis stationary promastigotes; assay: In vitro antileishmanial activity against promastigotes (MTT); format: cell-based
Experimental: The study was approved by the Committee for the Ethical Handling of Research Animals from the Federal University of Minas Gerais (protocol number 085/2017). Leishmania braziliensis (MHOM/BR/1975/M2904) promastigotes were grown at 24 °C in Schneider’s medium (Sigma-Aldrich, USA) supplemented with 20% heat-inactivated fetal bovine serum (FBS, Sigma-Aldrich, USA) and 20 mmol/L L-glutamine at pH 7.4 [65].
(§1) The in vitro antileishmanial activity was evaluated by incubating the promastigotes or axenic amastigotes (1 × 10^6 cells/well) with the 24 synthetic derivatives (Compounds 5–28; 0 to 600 µg/mL) in 96-well culture plates (Nunc, Nunclon, Roskilde, Denmark) for 48 h at 24 °C. Due to the difficulty in obtaining a high concentration of murine macrophages, the cytotoxicity experiment was evaluated by incubating such cells (5 × 10^5 per mL) with Compound 28 (0 to 600 µg/mL), which presented the best antileishmanial activity, for 48 h at 37 °C in a 5% CO2 environment. AmpB (0 to 10 µg/mL; Sigma-Aldrich, St. Louis, MO, USA) was used as a positive control in both experiments. The cell viability was assessed using the 3-(4.5-dimethylthiazol-2-yl)-2.5-diphenyl tetrazolium bromide (MTT, Sigma-Aldrich, St. Louis, MO, USA) method. The optical density (OD) values were read using a microplate spectrophotometer (Molecular Devices, Spectra Max Plus, San Jose, CA, USA) at 570 nm. Results were entered into Microsoft Excel (version 10.0) spreadsheets, and the 50% Leishmania and macrophage inhibitory concentrations (IC50 and CC50, respectively) were calculated by applying a sigmoidal regression of the dose–response curve. The SI was calculated by dividing the CC50 with the respective IC50 values.

[2] = Cytotoxicity in mammalian cells (MTT); format: cell-based; conditions: mouse; murine macrophages, 48 h at 37 °C in 5% CO2, MTT, mean ± standard deviation
Experimental: as §1

[3] = tested on: Leishmania braziliensis axenic amastigotes; assay: In vitro antileishmanial activity against axenic amastigotes (MTT); format: cell-based
Experimental: To obtain the axenic amastigotes, 1 × 10^9 stationary promastigotes were washed three times in sterile phosphate-buffered saline (PBS) and incubated in 5 mL FBS for 48 h at 37 °C. Parasites were washed with cold PBS, and their morphology was evaluated with an optical microscope after Giemsa staining as previously described.
as §1

[4] = tested on: L. braziliensis promastigotes infecting murine macrophages; assay: Inhibition of infection (parasites pre-incubated with compound, then used to infect macrophages); format: cell-based, Leishmania braziliensis; conditions: for Number of Amastigotes per Cell using pre-incubated parasites: untreated 8.9; for Percentage of Infected Macrophages Using Pre-Incubated Parasites: untreated 90.5
Experimental: (§2) To evaluate the inhibition of infection, promastigotes (5 × 10^6 cells) were first incubated with Compound 28 or AmpB (0, 1.0, 2.5 and 5.0 µg/mL in both cases) for 4 h at 24 °C; these were then used to infect murine macrophages (at a ratio of 10 parasites per macrophage) and incubated for 24 h at 37 °C in 5% CO2. Then, cells were fixed with 4% paraformaldehyde, washed, and stained with Giemsa. The percentage of infected macrophages and the number of recovered amastigotes were determined by counting 200 cells, in triplicate, using an optical microscope.

[5] = tested on: L. braziliensis-infected macrophages; assay: Treatment of infected macrophages; format: cell-based, Leishmania braziliensis; conditions: 48 h at 37 °C; for Number of Amastigotes per Cell after treatment: untreated 10.3; for Percentage of Infected Macrophages after Treatment: untreated 92.8
Experimental: Murine macrophages (5 × 10^5 cells) were plated on round glass coverslips in 24-well plates in RPMI 1640 medium with added 20% FBS and 20 mmol/L L-glutamine at pH 7.4 and incubated for 24 h at 37 °C in 5% CO2. Promastigotes were added to the wells (at a ratio of 10 parasites per macrophage), and cultures were incubated for 48 h at 37 °C in a 5% CO2 environment. Free parasites were removed by extensive washing with RPMI 1640 medium, and the infected macrophages were treated with Compound 28 or AmpB (0, 1.0, 2.5 and 5.0 µg/mL in both cases) for 48 h at 37 °C in 5% CO2.
as §2

[6] = tested on: L. braziliensis-infected macrophages; assay: ROS levels in Leishmania-infected macrophages (H2DCFDA); format: cell-based, Leishmania braziliensis; conditions: H2O2 0.02 µg/mL (0.5 µmol/L)
Experimental: Macrophages (1 × 10^6 cells/mL) were incubated in 96-well culture plates (Nunc, Nunclon, Roskilde, Denmark) and infected with L. braziliensis promastigotes (at a ratio of 10 parasites per cell). The infected macrophages were either left untreated or treated with Compound 28 (at a concentration of 5.0 µg/mL) for 48 h at 37 °C in 5% CO2. The cells were washed with PBS and incubated with 20 μmol/L H2DCFDA (Molecular Probes, Eugene, Oregon, USA) for 30 min in the dark. The fluorescence intensity was measured using a spectrofluorometer (FLx800; BioTek Instruments, Winooski, VT, USA) at 485 nm excitation and 528 nm emission. As a positive control, the infected macrophages were incubated with H2O2 at a concentration of 0.02 µg/mL (0.5 µmol/L). Parasites that were untreated with Compound 28 and not labeled with the fluorescent probe were used as the sample blank.
Figure 3 Production of ROS in L. braziliensis-infected macrophages treated with Compound 28. Leishmania braziliensis-infected macrophages (1 × 10^5 cells) were incubated with Compound 28 (5.0 µg/mL) for 48 h at 37 °C in a 5% CO2 environment. Subsequently, 2′,7′-dichlorodihydrofluorescein diacetate (H2DCFDA, 9.7 μg/mL) was added for 30 min under dark conditions. The fluorescence levels were measured in a spectrofluorometer at 485/528 nm. H2O2 (0.5 µmol/L) was used as a positive control. […]

[7] = tested on: L. braziliensis promastigotes; assay: ROS production in promastigotes (H2DCFDA); format: cell-based, Leishmania braziliensis; conditions: H2O2-incubated promastigotes
Experimental: After treatment with Compound 28 (at a concentration corresponding to one IC50 value) for 48 h at 24 °C, L. braziliensis promastigotes were washed with PBS, and the parasite concentration was adjusted to 3 × 10^6 cells per well. H2DCFDA (Sigma-Aldrich, St. Louis, MO, USA) was then added and incubated for 30 min in the dark, and samples were read in a fluorometric microplate reader (FLx800, BioTek Instruments, Winooski, VT, USA) with excitation and emission wavelengths of 485 and 528 nm, respectively. Parasites that were untreated or treated with Compound 28 and not labeled with the fluorescent probe were used as the blank.
Figure 4 ΔΨm and ROS production in Leishmania after exposure to Compound 28. Leishmania braziliensis promastigotes were not exposed (negative control) or exposed to Compound 28 (at a concentration corresponding to the IC50 value) for 48 h. (A) Depolarization of ΔΨm was evaluated using the JC-1 fluorescent probe. Samples were analyzed fluorometrically, and the results are expressed as the ratio of red/green fluorescence. FCCP ([…]) was used as a positive control. (B) ROS production was evaluated using the H2DCFDA probe. The fluorescence intensity was measured by fluorimetry, and the results are expressed as the fold increase in the ROS level compared with the non-treated control. H2O2-treated parasites were used as a positive control. […]

[8] = tested on: Leishmania braziliensis promastigotes; assay: Depolarization of mitochondrial membrane potential (ΔΨm), JC-1; format: cell-based; conditions: FCCP 1.3 µg/mL (5.0 µmol/L) for 20 min; non-treated parasites 7.2
Experimental: Leishmania braziliensis promastigotes (1 × 10^7 cells/mL) were treated with compound 28 (at a concentration corresponding to one IC50 value) for 48 h at 24 °C. The parasites (3 × 10^6 cells/mL) were then labeled with JC-1 (5 µg/mL, Sigma-Aldrich, St. Louis, MO, USA) for 30 min at 37 °C. After washing twice with PBS to remove the non-internalized dye, the samples were added to a black 96-well plate, and the ΔΨm was analyzed in a spectrofluorometer (FLx800, BioTek Instruments, Winooski, VT, USA) with an excitation filter of 485 nm and emission wavelength of 528 nm and […] to measure the green and red fluorescence, respectively. The ΔΨm was determined using the ratio between the red/green fluorescence intensity. Parasites that were exposed to 1.3 µg/mL (5.0 µmol/L) of FCCP (Sigma-Aldrich, St. Louis, MO, USA) for 20 min were used as a control. […]
Figure 4 ΔΨm and ROS production in Leishmania after exposure to Compound 28. […] (A) Depolarization of ΔΨm was evaluated using the JC-1 fluorescent probe. Samples were analyzed fluorometrically, and the results are expressed as the ratio of red/green fluorescence. […] (B) ROS production was evaluated using the H2DCFDA probe. The fluorescence intensity was measured by fluorimetry, and the results are expressed as the fold increase in the ROS level compared with the non-treated control. […]

[9] = parasites pre-incubated with 2.5 µg/mL at 24 °C
[10] = parasites pre-incubated with 5.0 µg/mL at 24 °C

- IC50 ([1]; Leishmania braziliensis, 48 h at 24 °C, MTT, mean ± standard deviation): 0.974 ± 0.2 mg/L (≈ 1.05 µM)
- IC50 ([3]; Leishmania braziliensis, 48 h, 48 h at 24 °C, MTT, mean ± standard deviation): 1.3 ± 0.4 mg/L (≈ 1.41 µM)
Structure (SMILES): C[C@@H]1[C@H](O)[C@@H](C)/C=C/C=C/C=C/C=C/C=C/C=C/C=C/[C@H](O[C@@H]2O[C@H](C)[C@@H](O)[C@H](N)[C@@H]2O)C[C@@H]2O[C@](O)(C[C@@H](O)C[C@@H](O)[C@H](O)CC[C@@H](O)C[C@@H](O)CC(=O)O[C@H]1C)C[C@H](O)[C@H]2C(=O)O [Amphotericin B, amphotericin B, reference compound]
- Selectivity index (SI), ratio CC50/IC50, promastigotes ([1]; CC50 murine macrophages / IC50 promastigotes): 9.1
- CC50 at 48 h [2]: 8.9 ± 0.8 mg/L (≈ 9.63 µM)
- Selectivity index (SI), ratio CC50/IC50, axenic amastigotes ([3]; CC50 murine macrophages / IC50 axenic amastigotes): 6.8
- Number of Amastigotes per Cell using pre-incubated parasites [4, 9]: 6.5
- Percentage of Infected Macrophages Using Pre-Incubated Parasites [4, 9]: 67.6%
- Number of Amastigotes per Cell using pre-incubated parasites [4, 10]: 5.3
- Percentage of Infected Macrophages Using Pre-Incubated Parasites [4, 10]: 51.4%
- Number of Amastigotes per Cell after treatment ([5]; 1.0 µg/mL): 4.2
- Percentage of Infected Macrophages after Treatment ([5]; 1.0 µg/mL): 39.1%
- Number of Amastigotes per Cell after treatment ([5]; 2.5 µg/mL): 3.5
- Percentage of Infected Macrophages after Treatment ([5]; 2.5 µg/mL): 27.6%
- Number of Amastigotes per Cell after treatment ([5]; 5.0 µg/mL): 1.8
- Percentage of Infected Macrophages after Treatment ([5]; 5.0 µg/mL): 19.8%

Structure (SMILES): OO [Compound H2O2, H2O2, reference compound]
- Increase in ROS production in infected cells (positive control) [6]: 41.4%
- Fold increase in ROS levels compared with untreated parasites (positive control) [7]: 1.6 fold

Structure (SMILES): N#CC(C#N)=NNc1ccc(OC(F)(F)F)cc1 [FCCP, carbonyl cyanide-p-trifluoromethoxyphenylhydrazone, reference compound]
- ΔΨm, JC-1 ratio of red/green fluorescence (positive control) [8]: 3.4
